Holding throughout (type): cell-based
The target of assay [1] is T1, human TLR8 (Homo sapiens, UniProt Q9NR97).
T1 construct: host or cells: HEK-Blue cells
T1 sequence (Q9NR97 27-1041): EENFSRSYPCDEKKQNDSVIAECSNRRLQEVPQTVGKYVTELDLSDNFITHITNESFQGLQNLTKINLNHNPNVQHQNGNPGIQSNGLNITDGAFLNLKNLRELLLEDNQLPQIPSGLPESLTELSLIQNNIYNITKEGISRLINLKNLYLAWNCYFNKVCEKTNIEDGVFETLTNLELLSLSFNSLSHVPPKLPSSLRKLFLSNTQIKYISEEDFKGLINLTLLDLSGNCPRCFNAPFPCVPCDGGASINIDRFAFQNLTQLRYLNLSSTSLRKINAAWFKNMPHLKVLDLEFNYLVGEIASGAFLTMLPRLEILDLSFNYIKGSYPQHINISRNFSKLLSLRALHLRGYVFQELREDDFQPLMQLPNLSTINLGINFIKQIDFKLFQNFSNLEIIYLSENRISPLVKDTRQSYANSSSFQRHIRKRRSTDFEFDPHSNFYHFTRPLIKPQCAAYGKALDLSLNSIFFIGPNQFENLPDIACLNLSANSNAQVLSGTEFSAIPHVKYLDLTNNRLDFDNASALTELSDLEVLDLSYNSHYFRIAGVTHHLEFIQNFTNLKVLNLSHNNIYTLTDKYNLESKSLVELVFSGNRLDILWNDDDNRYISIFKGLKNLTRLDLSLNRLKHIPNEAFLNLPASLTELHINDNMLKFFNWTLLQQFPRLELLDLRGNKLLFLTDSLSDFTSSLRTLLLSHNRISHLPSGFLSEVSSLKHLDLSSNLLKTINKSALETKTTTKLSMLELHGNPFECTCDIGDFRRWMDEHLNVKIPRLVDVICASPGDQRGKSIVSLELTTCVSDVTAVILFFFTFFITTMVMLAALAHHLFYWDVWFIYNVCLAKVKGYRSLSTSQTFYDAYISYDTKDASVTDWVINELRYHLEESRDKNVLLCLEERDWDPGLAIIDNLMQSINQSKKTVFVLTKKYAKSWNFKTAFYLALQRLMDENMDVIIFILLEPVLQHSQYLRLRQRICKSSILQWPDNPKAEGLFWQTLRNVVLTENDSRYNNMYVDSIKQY
The assay can be described thus: TLR8 inhibition reporter assay (HEK-Blue cells, SEAP reporter, R848 stimulation). The note with it: HEK-Blue cells overexpressing human TLR8, SEAP reporter, R848 15.9 μM. In short, it runs like this:
(§1)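 Dose range 0.05 nM–50 μM; 30 min preincubation, RT. Agonists: TLR7 gardiquimod 7.5 μM, TLR8 R848 15.9 μM, TLR9 ODN2006 5 nM. 22 h, 37 °C, 5% CO2. SEAP (IFN-β minimal promoter with NF-κB/AP-1 sites) via colorimetric detection medium; % inhibition vs agonist+DMSO and reference-inhibitor wells.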
(In a reporter assay the amount or activity of a reporter protein is the signal.)

Assay [2] concerns the target T2, human TLR7 (Homo sapiens, UniProt Q9NYK1).
T2 construct: host or cells: HEK-Blue cells
T2 sequence (Q9NYK1 27-1049): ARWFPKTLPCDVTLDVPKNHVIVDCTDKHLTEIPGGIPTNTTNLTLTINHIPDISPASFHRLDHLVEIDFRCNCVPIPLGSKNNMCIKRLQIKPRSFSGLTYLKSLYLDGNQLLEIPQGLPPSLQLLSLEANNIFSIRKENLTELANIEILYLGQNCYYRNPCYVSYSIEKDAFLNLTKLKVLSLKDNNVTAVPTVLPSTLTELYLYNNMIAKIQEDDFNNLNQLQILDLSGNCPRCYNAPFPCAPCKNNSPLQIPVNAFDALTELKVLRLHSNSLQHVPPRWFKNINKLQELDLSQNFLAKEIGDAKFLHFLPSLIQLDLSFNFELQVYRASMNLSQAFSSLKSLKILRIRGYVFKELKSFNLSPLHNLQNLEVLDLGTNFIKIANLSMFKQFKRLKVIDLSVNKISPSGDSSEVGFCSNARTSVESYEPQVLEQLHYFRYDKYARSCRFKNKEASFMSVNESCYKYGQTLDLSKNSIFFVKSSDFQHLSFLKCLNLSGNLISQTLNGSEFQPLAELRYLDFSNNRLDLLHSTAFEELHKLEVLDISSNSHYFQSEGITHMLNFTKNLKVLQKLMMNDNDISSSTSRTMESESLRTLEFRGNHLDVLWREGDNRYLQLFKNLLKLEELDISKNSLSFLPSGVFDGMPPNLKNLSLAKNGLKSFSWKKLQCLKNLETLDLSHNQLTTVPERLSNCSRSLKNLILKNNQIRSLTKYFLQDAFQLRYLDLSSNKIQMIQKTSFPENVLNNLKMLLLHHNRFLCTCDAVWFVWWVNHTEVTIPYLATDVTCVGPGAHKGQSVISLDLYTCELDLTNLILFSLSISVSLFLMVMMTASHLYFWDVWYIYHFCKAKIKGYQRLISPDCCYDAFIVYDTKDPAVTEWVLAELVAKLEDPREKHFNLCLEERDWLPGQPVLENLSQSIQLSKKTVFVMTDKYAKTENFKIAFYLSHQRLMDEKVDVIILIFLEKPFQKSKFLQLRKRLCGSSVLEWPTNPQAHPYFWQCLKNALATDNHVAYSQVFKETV
The assay can be described thus: TLR7 inhibition reporter assay (HEK-Blue cells, SEAP reporter, gardiquimod stimulation). The note with it: HEK-Blue cells overexpressing human TLR7, SEAP reporter, gardiquimod 7.5 μM. The method, boiled down: as §1

Assay [3] deals with T3, human TLR9 (Homo sapiens, UniProt Q9NR96).
T3 construct: host or cells: HEK-Blue cells
T3 sequence (Q9NR96 26-1032): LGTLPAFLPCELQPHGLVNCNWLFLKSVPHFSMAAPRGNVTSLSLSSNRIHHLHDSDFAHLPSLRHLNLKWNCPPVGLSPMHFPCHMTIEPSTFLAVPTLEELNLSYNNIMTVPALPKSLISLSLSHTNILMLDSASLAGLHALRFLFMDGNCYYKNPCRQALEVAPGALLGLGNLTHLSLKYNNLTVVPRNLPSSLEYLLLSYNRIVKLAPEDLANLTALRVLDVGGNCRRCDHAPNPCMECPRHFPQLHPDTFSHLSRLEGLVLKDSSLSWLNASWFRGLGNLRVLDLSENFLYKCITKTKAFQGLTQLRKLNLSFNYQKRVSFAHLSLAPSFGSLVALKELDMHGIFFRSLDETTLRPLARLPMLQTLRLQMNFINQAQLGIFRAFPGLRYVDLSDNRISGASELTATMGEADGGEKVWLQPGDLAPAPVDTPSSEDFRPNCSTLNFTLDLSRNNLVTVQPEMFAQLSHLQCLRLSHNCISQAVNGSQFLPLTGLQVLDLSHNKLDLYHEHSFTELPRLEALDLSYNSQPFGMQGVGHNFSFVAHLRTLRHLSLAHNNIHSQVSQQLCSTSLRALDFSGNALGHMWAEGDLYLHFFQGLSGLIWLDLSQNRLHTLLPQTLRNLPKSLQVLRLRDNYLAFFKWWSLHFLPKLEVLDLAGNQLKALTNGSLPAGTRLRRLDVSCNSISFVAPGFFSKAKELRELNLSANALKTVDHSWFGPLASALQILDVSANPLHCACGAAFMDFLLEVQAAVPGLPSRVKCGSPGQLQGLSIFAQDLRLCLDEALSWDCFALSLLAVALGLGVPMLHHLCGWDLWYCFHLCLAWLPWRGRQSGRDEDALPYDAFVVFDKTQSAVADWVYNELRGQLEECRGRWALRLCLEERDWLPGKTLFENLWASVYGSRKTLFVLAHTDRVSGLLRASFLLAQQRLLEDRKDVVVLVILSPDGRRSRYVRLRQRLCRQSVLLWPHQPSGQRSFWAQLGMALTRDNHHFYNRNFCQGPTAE
The assay can be described thus: TLR9 inhibition reporter assay (HEK-Blue cells, SEAP reporter, ODN2006 stimulation). The note with it: HEK-Blue cells overexpressing human TLR9, SEAP reporter, ODN2006 5 nM. In short, it runs like this:
as §1

What is called IC50 is the midpoint of a concentration-inhibition curve. Turning to `Cc1c(-c2[nH]c3ccc(CC4CCCN4C4COC4)cc3c2C(C)C)cn2cnnc2c1C` (stereo not drawn) [Example 427], the IC50 was found to be 19 nM in assay [1], 12 nM in assay [2] and 17600 nM in assay [3].

In the case of `COc1cc(-c2[nH]c3ccc(C4CC(N)C4)cc3c2C(C)C)cn2ncnc12` (stereo not drawn) [Example 568], the values for the IC50 in assay [1], in assay [2] and in assay [3] were 0.76 nM, 0.53 nM and 980 nM, respectively.

Consider `Cc1cc(-c2[nH]c3ccc(C4CCC(C(=O)NC5CCN(C(C)C)CC5)CC4)cc3c2C(C)C)cn2ncnc12` (stereo not drawn) [Example 158], for which the 50% inhibitory concentration (IC50) in assay [1] was found to be 3.2 nM; in assay [2], 0.47 nM; in assay [3], 2290 nM.

In the case of `Cc1c(-c2[nH]c3ccc(C4CC(NCC(=O)N(C)C)C4)cc3c2C(C)C)cn2ncnc2c1C` (stereo not drawn) [Example 566], the values for the concentration for half-maximal inhibition (IC50) in assay [1], in assay [2] and in assay [3] were 0.6 nM, 1 nM and 4450 nM, respectively.

As for `Cc1cc(-c2[nH]c3ccc(CCN4CCCCC4)cc3c2C(C)C)cn(C)c1=O` [Example 409], the half-inhibitory concentration (IC50) was determined as 3 nM in assay [1], 23 nM in assay [2] and 15600 nM in assay [3].

For the compound `Cc1cc(-c2[nH]c3ccc(C4CCC(N5CCOCC5)CC4)cc3c2C(C)C)cc(C)n1` (stereo not drawn) [Example 498], the IC50 is 18 nM in assay [1], 5 nM in assay [2] and 531 nM in assay [3].

As for `Cc1c(-c2[nH]c3ccc(C4CCC(NCC(=O)N(C)C)CC4)cc3c2C(C)C)cn(C)c(=O)c1C` (stereo not drawn) [Example 479], the figures for the IC50 in assay [1], in assay [2] and in assay [3] were 4.1 nM, 5 nM and 8610 nM, respectively.

`COc1ccc(-c2[nH]c3ccc(C4CCCN(C(=O)CN(C)C)C4)cc3c2C(C)C)cc1OC` (stereo not drawn) [Example 195]: the IC50 in assay [1] came to 43 nM; in assay [2] it was 20 nM; in assay [3] it was 2210 nM.

`Cc1cc(-c2[nH]c3ccc(CCN4CCCC(F)C4)cc3c2C(C)C)cn(C)c1=O` (stereo not drawn) [Example 406]: the IC50 in assay [1] amounted to 3.2 nM; in assay [2], 14 nM; in assay [3], 8810 nM.

For the compound `CNCC(=O)N1CCOC(c2ccc3[nH]c(-c4cn5ncnc5c(C)c4C)c(C(C)C)c3c2)C1` (stereo not drawn) [Example 340], the IC50 came out at 5.1 nM in assay [1], 2 nM in assay [2] and 4830 nM in assay [3].

With `Cc1cc(-c2[nH]c3ccc(C4CN(C(=O)CN(C)C)C(C)(C)CO4)cc3c2C(C)C)cn2ncnc12` (single isomer, unassigned) [Example 373, 2-(dimethylamino)-1-(2-(3-isopropyl-2-(8-methyl-[1,2,4]triazolo[1,5-a]pyridin-6-yl)-1H-indol-5-yl)-5,5-dimethylmorpholino)ethanone], the IC50 in assay [1] is 36 nM; in assay [2] it was 6 nM; in assay [3], greater than 50000 nM.

Regarding `Cc1c(-c2[nH]c3ccc(CC4CN(C(C)C)C4)cc3c2C(C)C)cn2ncnc2c1C` [Example 435], the IC50 was 2.5 nM in assay [1], 10 nM in assay [2] and 3410 nM in assay [3].

As for `COc1cc(-c2[nH]c3ccc(C4CCC(NC5(C)CC5)CC4)cc3c2C(C)C)cn2ncnc12` (stereo not drawn) [Example 42], the IC50 in assay [1] is 1 nM; in assay [2] it was 0.2 nM; in assay [3] it was 2610 nM.

Regarding `COc1cc(-c2[nH]c3ccc(C4CCC(N5CC6(COC6)C5)CC4)cc3c2C(C)C)cn2ncnc12` (stereo not drawn) [Example 73], the IC50 in assay [1] came out at 0.58 nM; in assay [2] it was 0.32 nM; in assay [3] it was 1590 nM.

With `COCCN(C)C1CCC(c2ccc3[nH]c(-c4cc(OC)c5ncnn5c4)c(C(C)C)c3c2)CC1` (single isomer, unassigned) [Example 72], the IC50 in assay [1] was 1.2 nM; in assay [2], 0.3 nM; in assay [3], 1280 nM.

For `CC(C)c1c(-c2ccnc3[nH]ncc23)[nH]c2ccc(CCC3CCNCC3)cc12` [Example 421], the IC50 was 4 nM in assay [1], 14 nM in assay [2] and 1100 nM in assay [3].

With `Cc1cc(-c2[nH]c3ccc(C4CCC(N(C)C)CC4)cc3c2C(C)C)cc(C)n1` (single isomer, unassigned) [Example 114], the IC50 in assay [1] was determined as 20 nM; in assay [2], 4 nM; in assay [3], 515 nM.

Consider `Cc1cc(-c2[nH]c3ccc(C4CN(C5CCOC(C)(C)C5)C4)cc3c2C(C)C)cn2ncnc12` (stereo not drawn) [Example 269, 6-(5-(1-(2,2-dimethyltetrahydro-2H-pyran-4-yl)azetidin-3-yl)-3-isopropyl-1H-indol-2-yl)-8-methyl-[1,2,4]triazolo[1,5-a]pyridine], for which the half-inhibitory concentration (IC50) in assay [1] was determined as 8.3 nM; in assay [2], 5 nM; in assay [3], 3670 nM.

Consider `COc1cc(-c2[nH]c3ccc(C4CCC(N(C)C(C)C)C4)cc3c2C(C)C)cn2ncnc12` (single isomer, unassigned) [Example 277, N-isopropyl-3-(3-isopropyl-2-(8-methoxy-[1,2,4]triazolo[1,5-a]pyridin-6-yl)-1H-indol-5-yl)-N-methylcyclopentan-1-amine], for which the 50% inhibitory concentration (IC50) was 4.4 nM in assay [1], 2 nM in assay [2] and 801 nM in assay [3].

The record behind these values is US11878975B2, “Substituted indole compounds useful as TLR inhibitors” (BRISTOL-MYERS SQUIBB COMPANY, priority 2017, dated 2024).
